In one series the target is T1, MAO-B (Homo sapiens, UniProt P27338).
T1 sequence (P27338 whole entry): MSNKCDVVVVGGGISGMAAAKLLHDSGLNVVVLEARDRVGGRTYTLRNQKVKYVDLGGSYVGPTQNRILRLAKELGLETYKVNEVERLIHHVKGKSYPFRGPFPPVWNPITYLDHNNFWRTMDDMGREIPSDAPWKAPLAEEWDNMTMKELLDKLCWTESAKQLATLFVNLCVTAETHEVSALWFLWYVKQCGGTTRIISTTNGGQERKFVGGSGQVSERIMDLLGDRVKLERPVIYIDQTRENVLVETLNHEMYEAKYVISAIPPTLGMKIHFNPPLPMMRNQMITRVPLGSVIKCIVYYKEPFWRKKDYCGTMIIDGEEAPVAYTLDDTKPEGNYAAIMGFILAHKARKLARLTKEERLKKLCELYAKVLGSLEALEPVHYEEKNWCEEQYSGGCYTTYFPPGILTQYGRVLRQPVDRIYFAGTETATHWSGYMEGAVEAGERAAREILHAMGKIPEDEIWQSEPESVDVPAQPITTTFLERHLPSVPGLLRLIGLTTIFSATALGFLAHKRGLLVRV
Put plainly: Inhibition of MAO-B (unknown origin) at 10 uM relative to control.

The target of a further series is T2, MAO-A (Homo sapiens, UniProt P21397).
T2 sequence (P21397 whole entry): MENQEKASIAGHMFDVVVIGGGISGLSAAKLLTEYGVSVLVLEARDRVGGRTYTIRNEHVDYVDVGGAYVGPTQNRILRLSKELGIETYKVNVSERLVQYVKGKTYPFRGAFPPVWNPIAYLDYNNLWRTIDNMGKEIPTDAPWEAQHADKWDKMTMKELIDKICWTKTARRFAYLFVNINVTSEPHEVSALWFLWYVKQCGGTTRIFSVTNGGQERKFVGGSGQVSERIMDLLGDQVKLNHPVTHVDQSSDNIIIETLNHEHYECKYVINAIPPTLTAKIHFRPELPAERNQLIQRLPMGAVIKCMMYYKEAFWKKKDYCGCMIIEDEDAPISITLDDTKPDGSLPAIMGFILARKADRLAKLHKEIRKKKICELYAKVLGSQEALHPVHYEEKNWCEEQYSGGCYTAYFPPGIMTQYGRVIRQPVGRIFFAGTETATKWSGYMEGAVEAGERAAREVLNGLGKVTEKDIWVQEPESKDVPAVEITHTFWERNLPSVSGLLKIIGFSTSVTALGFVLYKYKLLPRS
Put plainly: Inhibition of MAO-A (unknown origin) at 10 uM relative to control.

The subject of a further series is MGC-803. Put plainly: cells. The note with it: Homo sapiens, MGC-803, read-out: INH.
The next series has as its system SGC-7901. Description: cells. The settings on record: Homo sapiens, SGC-7901, read-out: INH.
The subject of another series is MCF7. Put plainly: cells. The note with it: Homo sapiens, MCF7, read-out: INH.
A further series concerns PC-3. Put plainly: cells. The note with it: Homo sapiens, PC-3, read-out: INH.

Description for MCF7: Antiproliferative activity against human MCF7 cells assessed as cell growth inhibition at 16 uM relative to control
Description for MGC-803: Antiproliferative activity against human MGC803 cells assessed as cell growth inhibition at 16 uM relative to control
Description for PC-3: Antiproliferative activity against human PC-3 cells assessed as cell growth inhibition at 16 uM relative to control
Description for SGC-7901: Antiproliferative activity against human SGC7901 cells assessed as cell growth inhibition at 16 uM relative to control

As for `Fc1ccc([C@@H]2C[C@H]2NCc2cn(-c3cccc(C(F)(F)F)c3)nn2)cc1F`, the inhibition at 10 µM against MAO-B stood at 43%; on MAO-A it was 90%.

With `FC(F)(F)c1ccc(-n2cc(CN[C@@H]3C[C@H]3c3ccccc3)nn2)cc1`, the inhibition at 10 µM against MAO-B was determined as 86%; against MAO-A, 101%.

As to `COc1ccc(-n2cc(CN[C@@H]3C[C@H]3c3ccccc3)nn2)cc1`, the inhibition at 10 µM on MAO-B worked out at 55%; at MAO-A, 99%.

On to `Fc1ccc([C@@H]2C[C@H]2NCc2cn(-c3ccc(C(F)(F)F)cc3)nn2)cc1F`, for which the inhibition at 10 µM against MAO-B worked out at 82%; against MAO-A it was 101%.

For the compound `COc1cccc(-n2cc(CN[C@@H]3C[C@H]3c3ccc(F)c(F)c3)nn2)c1`, the inhibition at 10 µM against MAO-B came out at 65%; at MAO-A, 102%.

With `COc1ccc(OC)c(-n2cc(CN[C@@H]3C[C@H]3c3ccc(F)c(F)c3)nn2)c1`, the inhibition at 16 µM in the series on MGC-803 turned out to be 24.5%; with SGC-7901, 27.7%; in the series with MCF7 it was 33.6%; in the series on PC-3, 21.8%. The inhibition at 10 µM against MAO-B amounted to 48%; against MAO-A, 89%.

For `COc1ccc(-n2cc(CN[C@@H]3C[C@H]3c3ccc(F)c(F)c3)nn2)cc1`, the inhibition at 16 µM in the series with MGC-803 came to 16.3%; in the series with SGC-7901, 42%; in the series on MCF7, 37.3%; with PC-3 it was 25.2%. The inhibition at 10 µM came out at 64% against MAO-B and 100% on MAO-A.

As to `FC(F)(F)c1cccc(-n2cc(CN[C@@H]3C[C@H]3c3ccccc3)nn2)c1`, the values for the inhibition at 10 µM against MAO-B and against MAO-A were 94% and 101%, respectively.

Consider `c1ccc([C@@H]2C[C@H]2NCc2cn(-c3ccccc3)nn2)cc1`, for which the inhibition at 10 µM on MAO-B was determined as 76%; at MAO-A, 102%.

Take `FC(F)(F)c1cc(-n2cc(CN[C@@H]3C[C@H]3c3ccccc3)nn2)cc(C(F)(F)F)c1`: the inhibition at 10 µM was 88% on MAO-B and 92% against MAO-A.

With `COc1ccccc1-n1cc(CN[C@@H]2C[C@H]2c2ccc(F)c(F)c2)nn1`, the figures for the inhibition at 10 µM against MAO-B and against MAO-A were 51% and 90%, respectively.

With `COc1ccc(OC)c(-n2cc(CN[C@@H]3C[C@H]3c3ccccc3)nn2)c1`, the inhibition at 10 µM turned out to be 58% on MAO-B and 97% against MAO-A.

`COc1cc(OC)cc(-n2cc(CN[C@@H]3C[C@H]3c3ccc(F)c(F)c3)nn2)c1`: the inhibition at 10 µM against MAO-B was 42%; against MAO-A it was 93%.

In the case of `COc1ccccc1-n1cc(CN[C@@H]2C[C@H]2c2ccccc2)nn1`, the inhibition at 10 µM against MAO-B amounted to 44%; at MAO-A it was 91%.

As to `COc1cccc(-n2cc(CN[C@@H]3C[C@H]3c3ccccc3)nn2)c1`, the inhibition at 10 µM against MAO-B was 54%; against MAO-A, 93%.

As to `Fc1ccc([C@@H]2C[C@H]2NCc2cn(-c3cc(C(F)(F)F)cc(C(F)(F)F)c3)nn2)cc1F`, the inhibition at 10 µM against MAO-B turned out to be 35%; against MAO-A it was 91%.

For the compound `COc1cc(OC)cc(-n2cc(CN[C@@H]3C[C@H]3c3ccccc3)nn2)c1`, the inhibition at 10 µM was found to be 67% at MAO-B and 101% at MAO-A.

Source of the values: ChEMBL document CHEMBL4814040 (Bioorg Med Chem Lett, 2021).
